Assay results reported in patent US20250228794A1, “HOMOVANILLYL ALCOHOL (HVA), HVA ISOMER, METHODS OF MAKING COMPOSITIONS COMPRISING SUCH COMPOUNDS, AND METHODS USING SUCH COMPOUNDS” (SOCIETE DES PRODUITS NESTLE S.A., priority 2017, published 2025).
Blank lines part the entries; values can stand above or below the compound they belong to.

Experiments:
[1] = Urinary excretion of oleuropein metabolites after intake of olive leaf extract (pilot study, LC-MS)
Protocol: Specifically, urine samples were enzymatically treated to hydrolyze the glucuronide and sulfate moieties and release the free forms which were quantified. After sample purification by liquid-liquid extraction, the chromatographic separation was operated on an Acquity™ UPLC® BEH C18 column (1.7 μm, 2.1×150 mm). The mobile phase consisted of 1 mmol/L ammonium acetate buffer and methanol under gradient conditions at a flow-rate of 0.25 mL/min. Hydroxytyrosol, homovanillyl alcohol, and the homovanillyl alcohol isomer 3-hydroxy-4-methoxyphenethanol (alternatively named 3-hydroxy-4-methoxyphenethyl alcohol) were identified and quantified by high performance liquid chromatography-electrospray ionization tandem mass spectrometry (HPLC-ESI-MS/MS) and by comparison with their corresponding chemically synthesized standards.
The circulating concentration and kinetics of absorption of phenolic compounds and their metabolites in biological fluids (plasma or urine) depends on the matrix in which the compounds are ingested, the dose ingested, the time point of sample collection, the microflora of each individual, and the metabolism of each individual. To develop the most appropriate analytical approach for the measurement of OE absorption, a pilot study was conducted. Specifically, five subjects collected urine at baseline (before intake of the olive leaf extract) and between the intakes of two capsules of the olive leaf extract.
The analytical method (sample preparation, deconjugation conditions, chromatographic detection and separation) was first developed by spiking chemical standards which were commercially available in commercial urine. The deconjugation conditions were determined by using the conjugates available, hydroxytyrosol sulfate and homovanillyl alcohol glucuronide. The commercially available chemical standards were 3,4-Dihydroxybenzoic acid; 3,4-Dihydroxyphenylacetic acid; Homovanillic acid; Homovanillyl alcohol; Homovanillyl alcohol glucuronide (vanillyl methanol glucuronide); Hydroxytyrosol; Hydroxytyrosol sulfate (hydroxytyrosol sulfate triethylammonium salt); and Vanillic acid.
Briefly, the sample preparation consisted of a liquid-liquid extraction with ethyl acetate after a protein precipitation using acidified methanol.
Regarding chromatographic analysis, Oleuropein metabolites were separated by reversed-phase ultra-performance liquid chromatography using a C18-column Acquity UPLC BEH C18 1.7 μm, 2.1 mm×150 mm, (Waters AG, Switzerland). The system consisted of a LC system Acquity™ UPLC® (Waters AG, Switzerland) coupled with a Qtrap 5500 Mass spectrometer detector equipped with an electrospray ionization source (ABSciex, Switzerland). Detection was performed in the negative operating mode at unit resolution.
Specifically, a preliminary analysis of the urine samples collected after intake of the olive leaf extract was performed by electrospray ionization (ESI) in the negative ion mode, scanning for the different [M−H]^− ions at the theoretical m/z of the expected oleuropein metabolites and conjugates (Table 1).
Relative amount of the metabolites identified was first evaluated to clarify if their excretion in urine was increasing after intake of the olive leaf extract. This evaluation was based on the measurement of the area under the corresponding chromatographic peak, which reflects the amount.

inflamed chondrocytes [2] = assay: Collagen in extra-cellular matrix of inflamed chondrocytes (anabolism); type: cell-based; settings: FIG. 18A
From the text: (§1) Chondrocytes in alginate beads were subjected to a two-hour polyphenols pre-treatment followed by a twenty-four hour IL1-α stimulation.
(§2) Next it was shown that oleuropein metabolites prevent collagen breakdown in inflamed chondrocytes (FIGS. 18A and 18B). In this regard, collagen in extra-cellular matrix corresponds to the collagen synthesized by the cells, i.e., anabolism. […] Collagen in culture media corresponds to the collagen degraded by cells and released in the media, i.e., […].

cyclooxygenase-2 (COX-2) = assay: COX-2 gene expression in chondrocytes (anti-inflammatory effect); type: cell-based; settings: FIG. 17B
Protocol: as §1
(§3) Then the anti-inflammatory effect of oleuropein metabolites in chondrocytes was studied.
Regarding FIG. 17B, cyclooxygenase-2 (COX-2) is another inflammation-related gene. It is linked to the Prostaglandin E2 (PGE2) pathway. OLP, EA and HVOH were efficient at 2 μM. OLP, OEA and HVOH were efficient at 10 μM.

Collagen-II = Collagen-II gene expression in chondrocytes in alginate beads, IL1-α stimulation; type: cell-based; settings: two-hour pre-treatment, twenty-four hour IL1-α stimulation; polyphenols at 10 μM; FIG. 16A
From the text: as §1
Regarding FIG. 16A, Collagen-II is an anabolism-related gene for major structural components of the extracellular matrix of joints.

inflamed chondrocytes [3] = assay: Collagen in culture media of inflamed chondrocytes (catabolism); type: cell-based; settings: FIG. 18B
From the text: as §1, §2

chondrocytes = assay: Effects of oleuropein metabolites on chondrocytes (overall); type: cell-based; settings: synthetic form; comparison with hydroxytyrosol
Protocol: As also set forth in detail later herein, several metabolites of oleuropein were tested for their effects on chondrocytes.
as §1

[4] = tested on: inducible isoform of nitric oxide synthase (iNOS); assay: iNOS gene expression in chondrocytes (anti-inflammatory effect); type: cell-based; settings: FIG. 17A
From the text: as §1, §3
Regarding FIG. 17A, the inducible isoform of nitric oxide synthase (iNOS) is an inflammation-related gene linked to NO production.

[5] = urine after intake of olive leaf extract, LC-MS, MS2/MS3

Compound: COc1cc(CCO)ccc1O[C@@H]1O[C@H](C(=O)O)[C@@H](O)[C@H](O)[C@H]1O [Homovanillyl alcohol glucuronide]
Number of forms confirmed in urine ([1]; in vivo): 1
detection and identification in urine ([1]; in vivo): Presence & identity confirmed

Compound: COc1cc(CC(=O)O)ccc1O [homovanillic acid, Homovanillic acid]
change of amount in urine (area under the peak) after intake of olive leaf extract versus basal ([1]; FIG. 15, subjects 1 to 5): do not increase

Compound: Elenolic acid sulfate [EA-S]
detection and identification in urine ([1]; in vivo): Neither ion of elenolic acid sulfate nor of elenolic acid glucuronide (EA-S or EA-G) could be detected

Compound: COc1cc(C(=O)O)ccc1O [vanillic acid, Vanillic acid]
change of amount in urine (area under the peak) after intake of olive leaf extract versus basal ([1]; human, in vivo): strongly increases in urine of subjects 2 and 4, but not as much in subjects 1, 3 and 5
detection and identification in urine [1, 5]: detected in samples after intake of the olive leaf extract and in basal samples

Compound: COc1ccc(CCO)cc1O [homovanillyl alcohol isomer, 3-hydroxy-4-methoxyphenethanol]
Collagen-II gene expression (protective effect) (Collagen-II): significant effect
collagen in culture media (collagen degraded and released, catabolism) (inflamed chondrocytes [3]): potent anti-breakdown effect (improved over control)
effects on chondrocytes (chondrocytes): more effective than hydroxytyrosol
iNOS gene expression (protective effect) ([4]; 2 μM): significant effect
iNOS gene expression (protective effect) ([4]; 10 μM): significant effect

Compound: Hydroxytyrosol sulfate
Number of forms confirmed in urine ([1]; urine after intake of olive leaf extract): 1
detection and identification in urine [1, 5]: Presence & identity confirmed

Compound: OCCc1ccc(O)c(O)c1 [hydroxytyrosol, 3,4-dihydroxyphenylethanol, reference compound]
Number of forms confirmed in urine ([1]; human, in vivo): 1
average of the area under the chromatographic peak in urine ([1]; human, in vivo): 7.7×10^6
change of amount in urine (area under the peak) after intake of olive leaf extract versus basal ([1]; in vivo): specifically increase after intake of olive leaf extract
detection and identification in urine ([1]; in vivo): Presence & identity confirmed
form excreted in urine ([1]; in vivo): mainly as conjugated form
relative abundance excreted in urine ([1]; in vivo): more abundant than HVOH

Second part, led by results:

Number of forms confirmed in urine ([1]; in vivo): 1
Compound: Oleuropein aglycone sulfate

Number of forms confirmed in urine ([1]; in vivo): 2
detection and identification in urine ([1]; in vivo): Presence & identity confirmed
Compound: Oleuropein aglycone glucuronide

Number of forms confirmed in urine ([1]; in vivo): 1
average of the area under the chromatographic peak in urine ([1]; in vivo): 2×10^6
COX-2 gene expression (cyclooxygenase-2 (COX-2); 10 μM): efficient
Compound: CC=C1C(O)OC=C(C(=O)OC)C1CC(=O)OCCc1ccc(O)c(O)c1 (stereo not drawn) [oleuropein aglycone, 3,4-dihydroxyphenylethanol-elenolic acid]
collagen in extra-cellular matrix (collagen synthesized by the cells, anabolism) (inflamed chondrocytes [2]): protective effect

change of amount in urine (area under the peak) after intake of olive leaf extract versus basal ([1]; in vivo): do not increase
Compound: O=C(O)Cc1ccc(O)c(O)c1 [3,4-dihydroxyphenylacetic acid, 3,4-Dihydroxyphenylacetic acid]
detection and identification in urine ([1]; in vivo): detected in samples after intake of the olive leaf extract and in basal samples

detection and identification in urine ([1]; in vivo): Not detected
Compound: Methylated oleuropein aglycone

COX-2 gene expression (cyclooxygenase-2 (COX-2); 2 μM): efficient
Compound: Elenolic acid [EA]
collagen in culture media (collagen degraded and released, catabolism) (inflamed chondrocytes [3]): potent anti-breakdown effect (improved over control)
detection and identification in urine ([1]; in vivo): none of them could be confirmed as being EA

change of amount in urine (area under the peak) after intake of olive leaf extract versus basal ([1]; in vivo): do not increase
Compound: O=C(O)c1ccc(O)c(O)c1 [3,4-dihydroxybenzoic acid]
detection and identification in urine ([1]; in vivo): detected in samples after intake of the olive leaf extract and in basal samples

Number of forms confirmed in urine ([1]; human, in vivo): 2
detection and identification in urine ([1]; in vivo): Presence & identity confirmed
form excreted in urine ([1]; in vivo): mainly as conjugated form
COX-2 gene expression (cyclooxygenase-2 (COX-2); 2 μM): efficient
COX-2 gene expression (cyclooxygenase-2 (COX-2); 10 μM): efficient
Compound: COc1cc(CCO)ccc1O [homovanillyl alcohol]
collagen in culture media (collagen degraded and released, catabolism) (inflamed chondrocytes [3]): potent anti-breakdown effect (improved over control)
effects on chondrocytes (chondrocytes): more effective than hydroxytyrosol
change of amount in urine (area under the peak) after intake of olive leaf extract versus basal ([1]; in vivo): specifically increase after intake of olive leaf extract
